Our source for the IC50 values is patent US20080021026A1, “BENZOTHIOPHENE INHIBITORS OF RHO KINASE” (priority 2006, published 2008).

In test [1] the target is T1, recombinant N-terminal GST-tagged human Rho kinase 1 (ROCK1, amino acids 1-535) (Homo sapiens, UniProt Q13464).
T1 construct: ROCK1, amino acids 1-535; purchased Invitrogen Inc. PV-3691
The test is described as follows: In vitro Rho kinase assay (luciferase-based ATP consumption), ROCK1. In kind it is biochemical. The method, then:
In Vitro Rho Kinase Assay
Rho kinase biochemical assays described below depend on firefly luciferase-based, indirect measurement of total ATP consumption by the kinase following incubation with substrate and ATP. 25 μl of Rho kinase assay buffer (20 mM Tris-HCL [pH 7.5], 1 mM MgCl2, 0.4 mM CaCl2, 0.15 mM EGTA, 0.1 mg/ml bovine serum albumin) containing 0.82 μg/ml of recombinant N-terminal GST-tagged human Rho kinase 1 (ROCK1, amino acids 1-535, Invitrogen Inc., cat. #PV-3691) or recombinant N-terminal GST-tagged human Rho kinase 2 (ROCK2, amino acids 1-552, Invitrogen Inc., cat #PV3759), 100 μg/ml S6 peptide substrate (related to amino acids 218-249 of the human 40S ribosomal protein S6, and suitable for ROCK1 or ROCK2, e.g. Upstate/Millipore Inc., cat #12-420), and 3 µM ATP are dispensed to wells of a 384 multi-well opaque plate. The plate is centrifuged for 30 seconds at approximately 200×g. 240 nl of test compound in DMSO is dispensed to each well by passive pin transfer. The lag phase of this in vitro kinase reaction permits addition of compounds soon after the reaction initiates. The reaction is allowed to incubate at 30° C. for 2 hours. The assay plates are sealed and maintained in a humidified environment. After 2 hours, 25 μl of easylite protein kinase assay reagent (Perkin-Elmer, Inc.) is dispensed. After an additional 10 minute incubation at room temperature (about 22° C.), luminescence activity is measured on a Molecular Devices Analyst multi-mode plate reader or other suitable plate reader. Kinase inhibition results in less ATP consumption, and therefore increased luminescence signal. Negative control activity is measured with DMSO lacking any test compound. The positive control is 2-methyl-1-(4-methylisoquinolin-5-ylsulfonyl)perhydro-1,4-diazepine hydrochloride (aka H-1152P, HCl salt). Efficacy is measured as a percentage of positive control activity. […] The designation NT means the cited example was not tested.

For test [2], the target named is T2, recombinant N-terminal GST-tagged human Rho kinase 2 (ROCK2, amino acids 1-552) (Homo sapiens, UniProt O75116).
T2 construct: ROCK2, amino acids 1-552; purchased Invitrogen Inc. PV3759
T2 sequence (O75116 1-552): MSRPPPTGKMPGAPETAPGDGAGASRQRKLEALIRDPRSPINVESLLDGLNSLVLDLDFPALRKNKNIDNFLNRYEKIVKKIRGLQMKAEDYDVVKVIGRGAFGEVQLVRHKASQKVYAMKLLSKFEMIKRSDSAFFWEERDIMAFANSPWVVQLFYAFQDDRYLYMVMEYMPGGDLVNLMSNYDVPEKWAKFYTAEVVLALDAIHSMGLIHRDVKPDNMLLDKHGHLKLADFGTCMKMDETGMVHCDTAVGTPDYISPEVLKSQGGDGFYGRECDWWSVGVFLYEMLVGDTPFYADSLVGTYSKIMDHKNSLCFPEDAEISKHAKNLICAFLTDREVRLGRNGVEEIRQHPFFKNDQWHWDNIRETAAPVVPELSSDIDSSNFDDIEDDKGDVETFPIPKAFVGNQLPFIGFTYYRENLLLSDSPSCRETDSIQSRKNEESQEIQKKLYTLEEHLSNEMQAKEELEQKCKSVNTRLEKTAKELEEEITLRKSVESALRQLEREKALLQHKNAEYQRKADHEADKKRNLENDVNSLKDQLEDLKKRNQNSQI
Put plainly: In vitro Rho kinase assay (luciferase-based ATP consumption), ROCK2. In kind it is biochemical. A digest of the protocol: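 Luciferase-based luminescence of leftover ATP after 2 h at 30 °C, where inhibition raises signal, reports activity of GST-tagged ROCK2 (aa 1-552) at 0.82 μg/ml. Conditions: S6 peptide 100 μg/ml, […], pH 7.5 Tris buffer. Results given as percent of H-1152P control activity.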

The mark [3] stands for this setting: recombinant GST-tagged human ROCK1, luciferase-based ATP consumption, read-out: ROCK1 IC50.
[4] abbreviates: recombinant GST-tagged human ROCK2, luciferase-based ATP consumption, read-out: ROCK2 IC50.
Setting [5] is: ROCK1 IC50, recombinant GST-tagged human ROCK1, luciferase-based ATP consumption.
The mark [6] stands for this setting: ROCK2 IC50, recombinant GST-tagged human ROCK2, luciferase-based ATP consumption.

Structures are written as SMILES. pIC50: −log10 of the molar value. Where two headings read alike, the source gives them in different places.

T1 sequence (Q13464 1-535): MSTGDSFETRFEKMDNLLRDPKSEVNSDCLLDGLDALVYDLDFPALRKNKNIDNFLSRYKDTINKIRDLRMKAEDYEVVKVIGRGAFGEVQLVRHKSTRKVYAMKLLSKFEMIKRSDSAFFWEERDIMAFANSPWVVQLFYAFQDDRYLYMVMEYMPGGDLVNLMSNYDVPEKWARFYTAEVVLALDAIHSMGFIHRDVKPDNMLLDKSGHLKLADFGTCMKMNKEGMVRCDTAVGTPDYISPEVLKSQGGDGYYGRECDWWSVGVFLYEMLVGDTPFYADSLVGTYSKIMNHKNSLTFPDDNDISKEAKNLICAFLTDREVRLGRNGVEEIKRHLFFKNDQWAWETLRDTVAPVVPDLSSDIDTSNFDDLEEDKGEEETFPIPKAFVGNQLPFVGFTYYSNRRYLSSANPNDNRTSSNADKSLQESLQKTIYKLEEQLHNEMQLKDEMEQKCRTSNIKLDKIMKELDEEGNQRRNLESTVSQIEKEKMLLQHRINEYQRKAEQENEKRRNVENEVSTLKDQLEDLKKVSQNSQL

For `CC(=O)Nc1cccc(Nc2ccc3sc(-c4ccnc(N)n4)c(C)c3c2)c1` [Example 58, N-(3-(2-(2-Aminopyrimidin-4-yl)-3-methylbenzo[b]thiophen-5-ylamino)phenyl)acetamide], the pIC50 in test [1] (setting [3]) and in test [2] (setting [4]) was greater than 5.30 each time.
Turning to `Cc1c(-c2ccnc(N)n2)sc2ccc(Nc3cccc(Oc4ccccc4)c3)cc12` [Example 53, 4-(3-Methyl-5-(3-phenoxyphenylamino)benzo[b]thiophen-2-yl)pyrimidin-2-amine], the pIC50 in test [1] (setting [3]) and in test [2] (setting [4]) was greater than 5.30 throughout.
Consider `COc1cccc(C#Cc2ccc3sc(-c4ccnc(N)n4)c(C)c3c2)c1` [Example 89, 4-(5-((3-Methoxyphenyl)ethynyl)-3-methylbenzo[b]thiophen-2-yl)pyrimidin-2-amine], for which the negative-log IC50 (pIC50) in test [1] (setting [3]) and in test [2] (setting [4]) was less than 5.30 throughout.
For the compound `Cc1nc(Br)sc1C(=O)NCc1ccc2sc(-c3ccnc(N)n3)c(C)c2c1` [Example 296, Cc1nc(Br)sc1C(═O)NCc2ccc3sc(c(C)c3c2)-c4ccnc(N)n4], the negative logarithm of the IC50 (pIC50) in test [1] (setting [3]) was less than 5.30; in test [2] (setting [4]), greater than 5.30.
For `Cc1c(-c2ccnc(N)n2)sc2ccc(CNC(=O)C3CCCN3C(=O)OC(C)(C)C)cc12` (stereo not drawn) [Example 289, Cc1c(sc2ccc(CNC(═O)[C]3CCCN3C(═O)OC(C)(C)C)cc12)-c4ccnc(N)n4] the same measures were greater than 5.30 and less than 5.30.
For `Cc1c(-c2ccnc(N)n2)sc2ccc(CNC(=O)C3CCCCC3)cc12` [Example 115, Cc1c(sc2ccc(CNC(═O)C3CCCCC3)cc12)-c4ccnc(N)n4] the same measures were less than 5.30 and greater than 5.30.
For `Cc1c(-c2ccnc(N)n2)sc2ccc(CNC(=O)c3cccc4ccccc34)cc12` [Example 189, Cc1c(sc2ccc(CNC(═O)c3cccc4ccccc34)cc12)-c5ccnc(N)n5] the same measures were greater than 5.30 and greater than 5.30.
Regarding `Cc1c(-c2ccnc(N)n2)sc2ccc(Cc3cccc(C(=O)O)c3)cc12` [Example 41, 3-((2-(2-Aminopyrimidin-4-yl)-3-methylbenzo[b]thiophen-5-yl)methyl)benzoic acid], the negative-log IC50 (pIC50) in test [1] (setting [3]) and in test [2] (setting [4]) was greater than 5.30 each time.
As for `Cc1c(-c2ccnc(N)n2)sc2ccc(Nc3cccnc3)cc12` [Example 65, 4-(3-Methyl-5-(pyridin-3-ylamino)benzo[b]thiophen-2-yl)pyrimidin-2-amine], the negative-log IC50 (pIC50) in test [1] (setting [3]) and in test [2] (setting [4]) was greater than 5.30 throughout.
As for `Cc1c(-c2ccnc(N)n2)sc2ccc(CNC(=O)c3cnc(O)c(Cl)c3)cc12` [Example 193, Cc1c(sc2ccc(CNC(═O)c3cnc(O)c(Cl)c3)cc12)-c4ccnc(N)n4], the negative logarithm of the IC50 (pIC50) in test [1] (setting [3]) is greater than 5.30; in test [2] (setting [4]) it was less than 5.30.
On the same counts, the results for `Cc1c(-c2ccnc(N)n2)sc2ccc(Cc3cccc(C(=O)NCCN4CCOCC4)c3)cc12` [Example 48, 3-((2-(2-Aminopyrimidin-4-yl)-3-methylbenzo[b]thiophen-5-yl)methyl)-N-(3-morpholinoethyl)benzamide] are greater than 5.30 and greater than 5.30.
For `COc1cccc(C(N)c2ccc3sc(-c4ccnc(N)n4)c(C)c3c2)c1` (stereo not drawn) [Example 32, 4-(5-(Amino(3-methoxyphenyl)methyl)-3-methylbenzo[b]thiophen-2-yl)pyrimidin-2-amine] the same measures were greater than 5.30 and greater than 5.30.
For `Cc1c(-c2ccnc(N)n2)sc2ccc(CNC(=O)c3ccccc3[N+](=O)[O-])cc12` [Example 179, Cc1c(sc2ccc(CNC(═O)c3ccccc3[N+]([O−])═O)cc12)-c4ccnc(N)n4] the same measures were less than 5.30 and greater than 5.30.
For `Cc1c(-c2ccnc(N)n2)sc2ccc(CNC(=O)C=Cc3ccc(Cl)cc3)cc12` [Example 224, Cc1c(sc2ccc(CNC(═O)C═Cc3ccc(Cl)cc3)cc12)-c4ccnc(N)n4], the pIC50 was less than 5.30 in test [1] (setting [3]) and greater than 5.30 in test [2] (setting [4]).
Take `Cc1c(-c2ccnc(N)n2)sc2ccc(CNC(=O)C=Cc3ccccc3)cc12` [Example 128, Cc1c(sc2ccc(CNC(═O)C═Cc3ccccc3)cc12)-c4ccnc(N)n4]: the negative logarithm of the IC50 (pIC50) in test [1] (setting [3]) and in test [2] (setting [4]) was greater than 5.30 throughout.
Take `Cc1c(-c2ccnc(N)n2)sc2ccc(Cc3cccc(C(=O)Nc4ccc(N5CCOCC5)cc4)c3)cc12` [Example 45, 3-((2-(2-Aminopyrimidin-4-yl)-3-methylbenzo[b]thiophen-5-yl)methyl)-N-(4-morpholinophenyl)benzamide]: the pIC50 in test [1] (setting [3]) and in test [2] (setting [4]) was greater than 5.30 throughout.
Consider `CC1=NN(c2ccc(C(=O)NCc3ccc4sc(-c5ccnc(N)n5)c(C)c4c3)cc2)C(=O)C1` [Example 295, CC1═NN(C(═O)C1)c2ccc(cc2)C(═O)NCc3ccc4sc(c(C)c4c3)-c5ccnc(N)n5], for which the figures for the pIC50 in test [1] (setting [3]) and in test [2] (setting [4]) were greater than 5.30 and less than 5.30, respectively.
As for `Cc1c(-c2ccnc(N)n2)sc2ccc(CNC(=O)c3cc(Br)ccc3Cl)cc12` [Example 314, Cc1c(sc2ccc(CNC(═O)c3cc(Br)ccc3Cl)cc12)-c4ccnc(N)n4], the negative logarithm of the IC50 (pIC50) in test [1] (setting [5]) and in test [2] (setting [6]) was greater than 5.30 throughout.
In the case of `Cc1c(-c2ccnc(N)n2)sc2ccc(C(=O)Nc3ccc(OCCN4CCOCC4)cc3)cc12` [Example 21, 2-(2-Aminopyrimidin-4-yl)-3-methyl-N-(4-(2-morpholinoethoxy)phenyl)benzo[b]thiophene-5-carboxamide], the negative-log IC50 (pIC50) in test [1] (setting [3]) and in test [2] (setting [4]) was greater than 5.30 throughout.
As to `Cc1c(-c2ccnc(N)n2)sc2ccc(CNC(=O)Cc3cccc(O)c3)cc12` [Example 140, Cc1c(sc2ccc(CNC(═O)Cc3cccc(O)c3)cc12)-c4ccnc(N)n4], the pIC50 in test [1] (setting [3]) was less than 5.30; in test [2] (setting [4]) it was greater than 5.30.
For `COc1cc(C=CC(=O)NCc2ccc3sc(-c4ccnc(N)n4)c(C)c3c2)ccc1O` [Example 255, COc1cc(C═CC(═O)NCc2ccc3sc(c(C)c3c2)-c4ccnc(N)n4)ccc1O] the same measures were greater than 5.30 and greater than 5.30.
`COc1cccc(Oc2ccc3sc(-c4ccnc(N)n4)c(C)c3c2)c1` [Example 81, 4-(5-(3-Methoxyphenoxy)-3-methylbenzo[b]thiophen-2-yl)pyrimidin-2-amine]: the pIC50 in test [1] (setting [3]) and in test [2] (setting [4]) was greater than 5.30 each time.
Turning to `Cc1c(-c2ccnc(N)n2)sc2ccc(CNC(=O)CCc3cccc(Br)c3)cc12` [Example 304, Cc1c(sc2ccc(CNC(═O)CCc3cccc(Br)c3)cc12)-c4ccnc(N)n4], the values for the pIC50 in test [1] (setting [3]) and in test [2] (setting [4]) were less than 5.30 and greater than 5.30, respectively.
For `Cc1c(-c2ccnc(N)n2)sc2ccc(Cl)cc12` [Example 1, 4-(5-Chloro-3-methylbenzo[b]thiophen-2-yl)pyrimidin-2-amine] the same measures were greater than 5.30 and greater than 5.30.
For `Cc1c(-c2ccnc(N)n2)sc2ccc(CNC(=O)Cc3ccc(O)c(Cl)c3)cc12` [Example 234, Cc1c(sc2ccc(CNC(═O)Cc3ccc(O)c(Cl)c3)cc12)-c4ccnc(N)n4] the same measures were greater than 5.30 and greater than 5.30.
For `Cc1c(C(=O)NCc2ccc3sc(-c4ccnc(N)n4)c(C)c3c2)oc2ccccc12` [Example 197, Cc1c(oc2ccccc12)C(═O)NCc3ccc4sc(c(C)c4c3)-c5ccnc(N)n5] the same measures were greater than 5.30 and less than 5.30.
For `Cc1c(-c2ccnc(N)n2)sc2ccc(CNC(=O)c3ccc(OCc4ccccc4)cc3)cc12` [Example 302, Cc1c(sc2ccc(CNC(═O)c3ccc(OCc4ccccc4)cc3)cc12)-c5ccnc(N)n5], the pIC50 in test [1] (setting [3]) and in test [2] (setting [4]) was less than 5.30 throughout.
`Cc1c(-c2ccnc(N)n2)sc2ccc(CNC(=O)c3cc(Cl)ccc3Cl)cc12` [Example 247, Cc1c(sc2ccc(CNC(═O)c3cc(Cl)ccc3Cl)cc12)-c4ccnc(N)n4]: the negative logarithm of the IC50 (pIC50) in test [1] (setting [5]) and in test [2] (setting [6]) was greater than 5.30 in each case.
On to `Cc1c(-c2ccnc(N)n2)sc2ccc(CNC(=O)c3ccc4cccc(O)c4n3)cc12` [Example 240, Cc1c(sc2ccc(CNC(═O)c3ccc4cccc(O)c4n3)cc12)-c5ccnc(N)n5], for which the negative logarithm of the IC50 (pIC50) in test [1] (setting [3]) and in test [2] (setting [4]) was greater than 5.30 each time.
In the case of `Cc1c(-c2ccnc(N)n2)sc2ccc(CNC(=O)c3cccc(Br)c3)cc12` [Example 262, Cc1c(sc2ccc(CNC(═O)c3cccc(Br)c3)cc12)-c4ccnc(N)n4], the results for the negative logarithm of the IC50 (pIC50) in test [1] (setting [3]) and in test [2] (setting [4]) were less than 5.30 and greater than 5.30, respectively.

Broadly, the pIC50 is the IC50 on a negative log10 scale, so that one unit is a factor of ten.
